Experimental data published in ChEMBL document CHEMBL4613209, “Quinolone hybrids and their anti-cancer activities: An overview” (Eur J Med Chem, 2019).

What was measured:
Type in all cases: functional, cell-based
L1210 [1] = experiment: Cytotoxicity against mouse L1210 cells assessed as reduction in cell viability
CHO = experiment: Cytotoxicity against CHO cells assessed as reduction in cell viability; details: Cricetulus griseus
HL-60 [2] = experiment: Cytotoxicity against human HL60 cells assessed as reduction in cell viability
Hep 3B2 = experiment: Antiproliferative activity against human Hep3B cells after 24 to 72 hrs by MTT assay
SMMC-7721 = experiment: Antiproliferative activity against human SMMC7721 cells after 24 to 72 hrs by MTT assay
L1210 [3] = experiment: Antiproliferative activity against mouse L1210 cells after 24 to 72 hrs by MTT assay
HL-60 [4] = experiment: Antiproliferative activity against human HL60 cells after 24 to 72 hrs by MTT assay

IC50 (SMMC-7721) | IC50 (L1210 [3]) | IC50 (HL-60 [4]) | SMILES | IC50 (L1210 [1]) | IC50 (CHO) | IC50 (HL-60 [2]) | IC50 (Hep 3B2)
 |  |  | C[C@H]1COc2c(N3CCN(C)CC3)c(F)cc3c(=O)c(-c4nn5c(-c6cn(C7CC7)c7cc(N8CCN(C)CC8)c(F)cc7c6=O)nnc5s4)cn1c23 | 0.12 to 5.2 µM | 0.12 to 5.2 µM | 0.12 to 5.2 µM | 
 |  |  | CCN1CCN(c2cc3c(cc2F)c(=O)c(-c2nnc(-c4cn(C5CC5)c5cc(N6CCNCC6)c(F)cc5c4=O)o2)cn3C2CC2)CC1 | 0.26 to 14.5 µM | 0.26 to 14.5 µM | 0.26 to 14.5 µM | 
 |  |  | COc1ccccc1/C=N/NC(=O)c1cn(C2CC2)c2cc(N/N=C/c3ccccc3OC)c(F)cc2c1=O | 1.5 to 23.5 µM | 1.5 to 23.5 µM | 1.5 to 23.5 µM | 
1.4 to 52.3 µM | 1.4 to 52.3 µM | 1.4 to 52.3 µM | CCn1cc(C(=O)N/N=C/c2ccc(O)c(OC)c2)c(=O)c2cc(F)c(N3CCNCC3)cc21 |  |  |  | 1.4 to 52.3 µM
 |  |  | O=C(N/N=C/c1ccc(F)cc1)c1cn(C2CC2)c2cc(N/N=C/c3ccc(F)cc3)c(F)cc2c1=O | 1.5 to 23.5 µM | 1.5 to 23.5 µM | 1.5 to 23.5 µM | 
1.4 to 52.3 µM | 1.4 to 52.3 µM | 1.4 to 52.3 µM | CCn1cc(-c2nnc(SCC(=O)N/N=C/c3cccc([N+](=O)[O-])c3)o2)c(=O)c2cc(F)c(N3CCN(C)CC3)cc21 |  |  |  | 1.4 to 52.3 µM
 |  |  | CC1COc2c(N3CCN(C)CC3)c(F)cc3c(=O)c(-c4nn5c(-c6cn(C7CC7)c7cc(N8CCNCC8)c(F)cc7c6=O)nnc5s4)cn1c23 (stereo unspecified) | 14.2 to 23.7 µM | 14.2 to 23.7 µM | 14.2 to 23.7 µM | 
 |  |  | CCN1CCN(c2cc3c(cc2F)c(=O)c(-c2nn4c(-c5cn(C6CC6)c6cc(N7CCNCC7)c(F)cc6c5=O)nnc4s2)cn3C2CC2)CC1 | 0.12 to 5.2 µM | 0.12 to 5.2 µM | 0.12 to 5.2 µM | 
 |  |  | CCN1CCN(c2cc3c(cc2F)c(=O)c(-c2nnc4sc(-c5cn6c7c(c(N8CCN(C)CC8)c(F)cc7c5=O)OCC6C)nn24)cn3C2CC2)CC1 (stereo unspecified) | 14.2 to 23.7 µM | 14.2 to 23.7 µM | 14.2 to 23.7 µM | 
1.4 to 52.3 µM | 1.4 to 52.3 µM | 1.4 to 52.3 µM | CCn1cc(C(=O)N/N=C/c2ccccc2O)c(=O)c2cc(F)c(N3CCNCC3)cc21 |  |  |  | 1.4 to 52.3 µM
 |  |  | CCN1CCN(c2cc3c(cc2F)c(=O)c(-c2nnc4sc(-c5cn(C6CC6)c6cc(N7CCN(C)CC7)c(F)cc6c5=O)nn24)cn3C2CC2)CC1 | 0.12 to 5.2 µM | 0.12 to 5.2 µM | 0.12 to 5.2 µM | 
 |  |  | O=C(N/N=C/c1ccccc1)c1cn(C2CC2)c2cc(N/N=C/c3ccccc3)c(F)cc2c1=O | 1.5 to 23.5 µM | 1.5 to 23.5 µM | 1.5 to 23.5 µM | 
1.4 to 52.3 µM | 1.4 to 52.3 µM | 1.4 to 52.3 µM | CCn1cc(C(=O)N/N=C/c2ccc([N+](=O)[O-])cc2)c(=O)c2cc(F)c(N3CCNCC3)cc21 |  |  |  | 1.4 to 52.3 µM
 |  |  | CCN1CCN(c2cc3c(cc2F)c(=O)c(-c2nnc4sc(-c5cn(CC)c6cc(N7CCNCC7)c(F)cc6c5=O)nn24)cn3C2CC2)CC1 | 0.12 to 5.2 µM | 0.12 to 5.2 µM | 0.12 to 5.2 µM | 
1.4 to 52.3 µM | 1.4 to 52.3 µM | 1.4 to 52.3 µM | CC1COc2c(N3CCN(C)CC3)c(F)cc3c(=O)c(-c4nnc(SCC(=O)N/N=C/c5ccc(Cl)cc5)[nH]4)cn1c23 (stereo unspecified) |  |  |  | 1.4 to 52.3 µM
1.4 to 52.3 µM | 1.4 to 52.3 µM | 1.4 to 52.3 µM | CCn1cc(-c2nnc(SCC(=O)N/N=C/c3ccc(O)c(OC)c3)o2)c(=O)c2cc(F)c(N3CCN(C)CC3)cc21 |  |  |  | 1.4 to 52.3 µM
1.4 to 52.3 µM | 1.4 to 52.3 µM | 1.4 to 52.3 µM | CCn1cc(-c2nnc(SCC(=O)N/N=C/c3ccc(C#N)cc3)o2)c(=O)c2cc(F)c(N3CCN(C)CC3)cc21 |  |  |  | 1.4 to 52.3 µM
1.4 to 52.3 µM | 1.4 to 52.3 µM | 1.4 to 52.3 µM | CC1COc2c(N3CCN(C)CC3)c(F)cc3c(=O)c(-c4nnc(N/N=C/c5ccc(Cl)cc5)[nH]4)cn1c23 (stereo unspecified) |  |  |  | 1.4 to 52.3 µM
1.4 to 52.3 µM | 1.4 to 52.3 µM | 1.4 to 52.3 µM | CC1COc2c(N3CCN(C)CC3)c(F)cc3c(=O)c(-c4nnc(SCC(=O)N/N=C/c5ccc(F)cc5)[nH]4)cn1c23 (stereo unspecified) |  |  |  | 1.4 to 52.3 µM
1.4 to 52.3 µM | 1.4 to 52.3 µM | 1.4 to 52.3 µM | CCn1cc(-c2nnc(SCC(=O)N/N=C/c3ccc(F)cc3)o2)c(=O)c2cc(F)c(N3CCN(C)CC3)cc21 |  |  |  | 1.4 to 52.3 µM
1.4 to 52.3 µM | 1.4 to 52.3 µM | 1.4 to 52.3 µM | COc1ccc(/C=N/NC(=O)CSc2nnc(-c3cn4c5c(c(N6CCN(C)CC6)c(F)cc5c3=O)OCC4C)[nH]2)cc1 (stereo unspecified) |  |  |  | 1.4 to 52.3 µM
1.4 to 52.3 µM | 1.4 to 52.3 µM | 1.4 to 52.3 µM | CCn1cc(-c2nnc(SCC(=O)N/N=C/c3cc(OC)c(OC)c(OC)c3)o2)c(=O)c2cc(F)c(N3CCN(C)CC3)cc21 |  |  |  | 1.4 to 52.3 µM
1.4 to 52.3 µM | 1.4 to 52.3 µM | 1.4 to 52.3 µM | CCn1cc(C(=O)N/N=C/c2ccccc2)c(=O)c2cc(F)c(N3CCNCC3)cc21 |  |  |  | 1.4 to 52.3 µM
1.4 to 52.3 µM | 1.4 to 52.3 µM | 1.4 to 52.3 µM | COc1cc(/C=N/Nc2nnc(-c3cn4c5c(c(N6CCN(C)CC6)c(F)cc5c3=O)OCC4C)[nH]2)cc(OC)c1OC (stereo unspecified) |  |  |  | 1.4 to 52.3 µM
